Results on 28 compounds are retold here after patent US20070219186A1, “Pyrazolo[1,5-A]pyrimidine derivatives and methods of use thereof” (priority 2006, published 2007).

Like-named read-outs stand apart in the source and are kept apart here.

The test has as its target T1, human B-Raf (Homo sapiens, UniProt P15056).
T1 construct: Flag; GST; made in house; host or cells: Sf9 insect cells (B-Raf); E. coli (MEK1-GST)
The experiment in a line: B-Raf Kinase to MEK1 ELISA. The test is classed as biochemical. To be noted: for inhibition at 10 µM: read-out: % Inhib./10 uM. An outline of the steps:
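Read-out is a DELFIA europium signal from phospho-MEK1 (Ser217/221) antibody after capture of GST-MEK1 (50 nM final) on anti-GST plates. Phosphorylation comes from Sf9-expressed Flag/GST human B-Raf (~20 ng) with ATP/MgCl2, 60 min RT, pH 7.2 MOPS.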
A general note: ELISA stands for enzyme-linked immunosorbent assay.

[1] abbreviates: median, cpd concentrations from 10 μM to 30 nM in half log dilutions, read-out: Median IC50.

T1 sequence (P15056 whole entry): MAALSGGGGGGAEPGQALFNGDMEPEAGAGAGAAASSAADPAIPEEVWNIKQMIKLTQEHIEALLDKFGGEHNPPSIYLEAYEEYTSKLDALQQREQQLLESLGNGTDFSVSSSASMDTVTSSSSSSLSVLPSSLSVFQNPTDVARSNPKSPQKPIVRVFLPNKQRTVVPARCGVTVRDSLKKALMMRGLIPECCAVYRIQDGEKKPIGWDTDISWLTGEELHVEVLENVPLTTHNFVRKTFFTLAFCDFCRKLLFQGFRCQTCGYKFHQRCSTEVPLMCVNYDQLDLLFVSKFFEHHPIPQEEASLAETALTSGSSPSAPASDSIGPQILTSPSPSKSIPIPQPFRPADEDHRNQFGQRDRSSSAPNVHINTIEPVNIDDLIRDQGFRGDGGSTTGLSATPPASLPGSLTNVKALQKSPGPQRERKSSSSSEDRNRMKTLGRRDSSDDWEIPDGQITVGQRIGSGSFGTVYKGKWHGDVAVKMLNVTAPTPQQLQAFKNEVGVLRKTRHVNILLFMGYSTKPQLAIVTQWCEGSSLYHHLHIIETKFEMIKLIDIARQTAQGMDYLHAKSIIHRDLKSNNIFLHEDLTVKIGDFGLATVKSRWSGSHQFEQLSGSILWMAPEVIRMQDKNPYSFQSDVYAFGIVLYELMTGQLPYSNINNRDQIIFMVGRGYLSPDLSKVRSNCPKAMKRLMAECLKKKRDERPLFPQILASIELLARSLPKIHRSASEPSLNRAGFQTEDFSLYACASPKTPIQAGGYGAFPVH

With `O=C(Nc1cccc(-c2ccnc3c(-c4ccncc4)cnn23)c1)c1ccc(F)c(C(F)(F)F)c1` [Example 190, 4-fluoro-N-[3-(3-pyridin-4-ylpyrazolo[1,5-a]pyrimidin-7-yl)phenyl]-3-(trifluoromethyl)benzamide], the inhibition at 10 µM came to 68%. The IC50 under setting [1] worked out at 940 nM.

`CCOC(=O)c1cnn2c(-c3cccc(NC(=O)Nc4ccc(C)c(C)c4)c3)ccnc12` [Example 42, ethyl 7-[3-({[(3,4-dimethylphenyl)amino]carbonyl}amino)phenyl]pyrazolo[1,5-a]pyrimidine-3-carboxylate]: the inhibition at 10 µM came out at 70%. Besides, the IC50 under setting [1] was 3530 nM.

As to `CCOC(=O)c1cnn2c(-c3cccc(NC(=O)c4ccc(F)cc4C(F)(F)F)c3)ccnc12` [Example 76, ethyl 7-(3-{[4-fluoro-2-(trifluoromethyl)benzoyl]amino}phenyl)pyrazolo[1,5-a]pyrimidine-3-carboxylate], the inhibition at 10 µM turned out to be 0%. Moreover, the IC50 under setting [1] is above 10000 nM.

In the case of `O=C(Nc1cccc(-c2ccnc3c(C(=O)NCCN4CCOCC4)cnn23)c1)c1cccc(C(F)(F)F)c1` [Example 52, N-(2-morpholin-4-ylethyl)-7-(3-{[3-(trifluoromethyl)benzoyl]amino}phenyl)pyrazolo[1,5-a]pyrimidine-3-carboxamide], the inhibition at 10 µM came out at 60%. Moreover, the IC50 under setting [1] was determined as 8000 nM.

For `CNC(=O)c1cnn2c(-c3cccc(NC(=O)c4cccc(C(F)(F)F)c4)c3)ccnc12` [Example 31, N-methyl-7-(3-{[3-(trifluoromethyl)benzoyl]amino}phenyl)-pyrazolo[1,5-a]pyrimidine-3-carboxamide], the inhibition at 10 µM is 48%. Moreover, under setting [1], the half-inhibitory concentration (IC50) is above 10000 nM.

For the compound `O=C(Nc1cccc(-c2ccnc3cc(-c4ccncc4)nn23)c1)c1ccccc1` [Example 144, N-[3-(2-pyridin-4-ylpyrazolo[1,5-a]pyrimidin-7-yl)phenyl]benzamide], the inhibition at 10 µM was 15%. Further, under setting [1], the IC50 was above 10000 nM.

In the case of `CC(C)(C)CC(=O)Nc1cccc(-c2ccnc3cc(-c4ccncc4)nn23)c1` [Example 240, 3,3-dimethyl-N-[3-(2-pyridin-4-ylpyrazolo[1,5-a]pyrimidin-7-yl)phenyl]butanamide], the inhibition at 10 µM worked out at 10%. Besides, under setting [1], the IC50 was above 10000 nM.

For the compound `CN(C)C1CCN(c2cc3nccc(-c4cccc(NC(=O)c5cccc(C(F)(F)F)c5)c4)n3n2)C1` (stereo not drawn) [Example 209, N-(3-{2-[3-(dimethylamino)pyrrolidin-1-yl]pyrazolo[1,5-a]pyrimidin-7-yl}phenyl)-3-(trifluoromethyl)benzamide], the inhibition at 10 µM was determined as 24%. Also, under setting [1], the IC50 is above 10000 nM.

Consider `O=C1CCN(c2cc3nccc(-c4cccc(NC(=O)c5cccc(C(F)(F)F)c5)c4)n3n2)CC1` [Example 251, N-{3-[2-(4-oxopiperidin-1-yl)pyrazolo[1,5-a]pyrimidin-7-yl]phenyl}-3-(trifluoromethyl)benzamide], for which the inhibition at 10 µM is 42%.

Regarding `Cc1ccc(C(=O)Nc2cccc(-c3ccnc4cc(-c5cccs5)nn34)c2)cc1C(F)(F)F` [Example 117, 4-methyl-N-{3-[2-(2-thienyl)pyrazolo[1,5-a]pyrimidin-7-yl]phenyl}-3-(trifluoromethyl)benzamide], the inhibition at 10 µM was 24%. Besides, the IC50 under setting [1] was above 10000 nM.

As to `CCOC(=O)c1cnn2c(-c3cccc(NC(=O)Nc4ccc(Cl)cc4C)c3)ccnc12` [Example 36, ethyl 7-[3-({[(4-chloro-2-methylphenyl)amino]carbonyl}amino)phenyl]pyrazolo[1,5-a]pyrimidine-3-carboxylate], the inhibition at 10 µM is 33%. Further, the IC50 under setting [1] was above 10000 nM.

Turning to `O=C(Nc1cccc(-c2ccnc3c(-c4ccccc4C(F)(F)F)cnn23)c1)c1cccc(C(F)(F)F)c1` [Example 290, 3-(trifluoromethyl)-N-(3-{3-[2-(trifluoromethyl)phenyl]pyrazolo[1,5-a]pyrimidin-7-yl}phenyl)benzamide], the midpoint of inhibition, the IC50, lay at 367 nM and the inhibition at 10 µM was 67%.

For `CCOC(=O)c1cnn2c(-c3cccc(NC(=O)c4ccc(Cl)s4)c3)ccnc12` [Example 222, ethyl 7-(3-{[(5-chloro-2-thienyl)carbonyl]amino}phenyl)pyrazolo[1,5-a]pyrimidine-3-carboxylate], the inhibition at 10 µM was 43%. Besides, the IC50 under setting [1] is above 10000 nM.

Take `Nc1ccc(-c2cnn3c(-c4cccc(NC(=O)c5cccc(C(F)(F)F)c5)c4)ccnc23)cn1` [Example 278, N-{3-[3-(6-aminopyridin-3-yl)pyrazolo[1,5-a]pyrimidin-7-yl]phenyl}-3-(trifluoromethyl)benzamide]: the IC50 turned out to be 111 nM and the inhibition at 10 µM amounted to 96%.

With `O=C(Nc1cccc(-c2ccnc3cc(-c4ccncc4)nn23)c1)Nc1ccc(F)c(C(F)(F)F)c1` [Example 131, N-[4-fluoro-3-(trifluoromethyl)phenyl]-N′-[3-(2-pyridin-4-ylpyrazolo[1,5-a]pyrimidin-7-yl)phenyl]urea], the inhibition at 10 µM was 98%. For the same compound, under setting [1], the IC50 was found to be 30 nM.

Consider `O=C(Nc1cccc(-c2ccnc3c(-c4ccc(CN5CCCC5)o4)cnn23)c1)c1cccc(C(F)(F)F)c1` [Example 316, N-(3-{3-[5-(pyrrolidin-1-ylmethyl)-2-furyl]pyrazolo[1,5-a]pyrimidin-7-yl}phenyl)-3-(trifluoromethyl)benzamide], for which the inhibition at 10 µM was determined as 92%. Under setting [1], the IC50 was 541 nM.

In the case of `CCOC(=O)c1cnn2c(-c3cc(NC(=O)c4cccc(C(F)(F)F)c4)ccc3[N+](=O)[O-])ccnc12` [Example 85, ethyl 7-(2-nitro-5-{[3-(trifluoromethyl)benzoyl]amino}phenyl)pyrazolo[1,5-a]pyrimidine-3-carboxylate], the inhibition at 10 µM stood at 81%. Moreover, the IC50 under setting [1] worked out at 410 nM.

In the case of `CCOC(=O)c1cnn2c(-c3cc(NC(=O)c4ccc(C)c(C(F)(F)F)c4)ccc3[N+](=O)[O-])ccnc12` [Example 105, ethyl 7-(5-{[4-methyl-3-(trifluoromethyl)benzoyl]amino}-2-nitrophenyl)pyrazolo[1,5-a]pyrimidine-3-carboxylate], the inhibition at 10 µM is 37%. Moreover, under setting [1], the IC50 is above 10000 nM.

For `CCOC(=O)c1cnn2c(-c3cccc(NC(=O)c4cccc(OC(F)(F)F)c4)c3)ccnc12` [Example 7, ethyl 7-(3-{[3-(trifluoromethoxy)benzoyl]amino}phenyl)pyrazolo[1,5-a]pyrimidine-3-carboxylate], the IC50 under setting [1] is 1430 nM. Moreover, the inhibition at 10 µM (single point assay, 10 uM) came out at 67%.

On to `O=C(Nc1cccc(-c2ccnc3cc(-c4ccnc(NCCCn5ccnc5)c4)nn23)c1)c1cccc(C(F)(F)F)c1` [Example 262, N-{3-[2-(2-{[3-(1H-imidazol-1-yl)propyl]amino}pyridin-4-yl)pyrazolo[1,5-a]pyrimidin-7-yl]phenyl}-3-(trifluoromethyl)benzamide], for which the inhibition at 10 µM was 98%. The IC50 under setting [1] was 65.5 nM.

On to `CCOC(=O)c1cnn2c(-c3cccc(NC(=O)c4cc(Cl)ccc4C)c3)ccnc12` [Example 74, ethyl 7-{3-[(5-chloro-2-methylbenzoyl)amino]phenyl}pyrazolo[1,5-a]pyrimidine-3-carboxylate], for which the inhibition at 10 µM is 10%. Moreover, the IC50 under setting [1] was above 10000 nM.

As for `CCOC(=O)c1cnn2c(-c3cccc(NC(=O)Nc4ccc5ccccc5c4)c3)ccnc12` [Example 21, ethyl 7-(3-{[(2-naphthylamino)carbonyl]amino}phenyl)pyrazolo[1,5-a]pyrimidine-3-carboxylate], the inhibition at 10 µM was 58%. The IC50 under setting [1] came out at 2300 nM.

For `COc1ccc(C(=O)Nc2cccc(-c3ccnc4c(-c5ccncc5)cnn34)c2)cc1C(F)(F)F` [Example 189, 4-methoxy-N-[3-(3-pyridin-4-ylpyrazolo[1,5-a]pyrimidin-7-yl)phenyl]-3-(trifluoromethyl)benzamide], it took 360 nM to reach half-maximal inhibition (IC50) and the inhibition at 10 µM turned out to be 83%.

Take `CCOC(=O)c1cnn2c(-c3ccc(OC)c(NC(=O)c4cccc(C(F)(F)F)c4)c3)ccnc12` [Example 88, ethyl 7-(4-methoxy-3-{[3-(trifluoromethyl)benzoyl]amino}phenyl)pyrazolo[1,5-a]pyrimidine-3-carboxylate]: the inhibition at 10 µM was 14%. In addition, under setting [1], the IC50 was above 10000 nM.

Take `COCCNC(=O)c1cnn2c(-c3cccc(NC(=O)c4cccc(C(F)(F)F)c4)c3)ccnc12` [Example 45, N-(2-methoxyethyl)-7-(3-{[3-(trifluoromethyl)benzoyl]amino}phenyl)pyrazolo[1,5-a]pyrimidine-3-carboxamide]: the inhibition at 10 µM was 56%.

For the compound `O=C(Nc1cccc(-c2ccnc3cc(-c4ccc(CO)cc4)nn23)c1)c1cccc(C(F)(F)F)c1` [Example 135, N-(3-{2-[4-(hydroxymethyl)phenyl]pyrazolo[1,5-a]pyrimidin-7-yl}phenyl)-3-(trifluoromethyl)benzamide], the inhibition at 10 µM is 32%. Under setting [1], the IC50 is above 10000 nM.

Consider `N#Cc1ccccc1-c1cnn2c(-c3cccc(NC(=O)c4cccc(C(F)(F)F)c4)c3)ccnc12` [Example 293, N-{3-[3-(2-cyanophenyl)pyrazolo[1,5-a]pyrimidin-7-yl]phenyl}-3-(trifluoromethyl)benzamide], for which the IC50 came to 7470 nM and the inhibition at 10 µM is 55%.

Turning to `CCOC(=O)c1cnn2c(-c3cccc(NC(=O)c4cccc(C(F)(F)F)c4)c3)ccnc12` [Example 1, Pyrazolo[1,5-a]pyrimidine-3-carboxylic acid, 7-[3-[[3-(trifluoromethyl)-benzoyl]amino]phenyl]-, ethyl ester], the inhibition at 10 µM is 66%. Besides, the IC50 under setting [1] was determined as 720 nM.

A word on the IC50: it is the concentration at which inhibition is half-maximal.
